52 compounds from patent US20140148484A1, “PYRAZOLE COMPOUNDS FOR TREATING HAIRLOSS” (Boehringer Ingelheim International GmbH, priority 2012, published 2014) can be followed below.

Each structure is given as a SMILES string.

In the test the target is T1, human CRTH2 receptor (Homo sapiens, UniProt Q9Y5Y4).
T1 construct: host or cells: CHO-K1 (CHO-K1-hCRTH2 cells); membranes prepared in house from the purchased cell line
T1 sequence (Q9Y5Y4 1-395): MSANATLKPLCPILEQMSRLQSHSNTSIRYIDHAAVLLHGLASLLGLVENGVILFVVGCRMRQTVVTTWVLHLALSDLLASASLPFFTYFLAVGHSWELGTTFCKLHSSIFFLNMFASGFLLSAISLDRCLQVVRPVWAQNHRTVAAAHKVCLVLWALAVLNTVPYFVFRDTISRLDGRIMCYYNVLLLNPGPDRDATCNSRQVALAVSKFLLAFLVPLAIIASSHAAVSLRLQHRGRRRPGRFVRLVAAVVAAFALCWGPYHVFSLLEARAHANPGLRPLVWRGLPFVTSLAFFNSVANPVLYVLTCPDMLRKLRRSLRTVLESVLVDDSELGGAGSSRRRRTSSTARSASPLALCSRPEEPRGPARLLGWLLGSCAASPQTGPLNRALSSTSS
Briefly: Human CRTH2 receptor membrane radioligand binding assay (SPA, [3H]-PGD2). Particulars: displacement of [3H]-PGD2 (1 nM) from CHO-K1-hCRTH2 cell membranes, 3 h room temperature. On the procedure:
Preparation of Human CRTH2 Receptor Membranes and Radioligand Binding Assay
The binding of CRTH2 antagonists is determined using membranes prepared from Chinese hamster ovary cells (CHO-K1 cells) transfected with the human CRTH2 receptor (CHO-K1-hCRTH2 cells, Perkin Elmer, Cat No ES-561-C). To produce cell membranes the CHO-K1-hCRTH2 cells are cultured in suspension in CHO SFMII medium supplemented with 400 μg/ml G418. The cells are harvested by centrifugation at 300 g for 10 min at room temperature. The cell pellet is resuspended in Phosphate Buffer Saline (PBS) including a protease inhibitor mix (Complete, Roche) and adjusted to a concentration of 10E7 cells/ml. The CHO-K1-hCRTH2 cells are disrupted by nitrogen […] to obtain the membrane preparation. Cell debris is removed by centrifugation (500 g at 4° C., 30 min) and the supernatant is transferred into fresh tubes followed by a second centrifugation at 40000 g for 1 h at 4° C. to sediment the membranes. The membranes are suspended in SPA incubation buffer (50 mM Tris HCl, 10 mM MgCl2, 150 mM NaCl, 1 mM EDTA, pH 7.4) without bovine serum albumin, homogenized by passing through a single use needle (Terumo, 23G×1″), and stored in aliquots at −80° C.
The CRTH2 receptor binding assay is performed in a scintillation proximity assay (SPA) format with the radioligand [^3H]-PGD2 (Perkin Elmer, NET616000MC). CHO-K1-hCRTH2 cell membranes are again homogenized by passing through a single use needle (Terumo, 23G×1″) and diluted in SPA incubation buffer in suitable concentrations (0.5-10 μg protein/well). The SPA assay is set up in 96 well microtiter plates (Perkin Elmer, CatNo. 6005040) in SPA incubation buffer with a final volume of 200 μl per well and final concentration of 50 mM Tris-HCl, 10 mM MgCl2, 150 mM NaCl, 1 mM EDTA pH 7.4, 0.1% bovine serum albumin). The SPA assay mixture contains 60 μl of the membrane suspension, 80 μl of Wheat Germ Agglutinin coated PVT beads (GE Healthcare, RPNQ-0001, 0.3 mg/well), 40 μl of [3H]-PGD2 diluted in SPA buffer to a final concentration of 1 nM (50 000 dpm) and 20 μl of the test compound (dissolved in dimethylsulfoxid). The SPA assay mixture is incubated for 3 h at room temperature. Bound radioactivity is determined with a scintillation counter (Micro Beta Trilux, Wallac).
The binding of [^3H]-PGD2 to CHO-K1-hCRTH2 cell membranes is determined in the absence (total binding, Bo) and presence (non-specific binding, NSB) of unlabelled PGD2 (1 μM, Cayman Chemical, Cat No 12010) or a reference CRTH2 antagonist (10 μM CAY10471, Cayman Chemical, Cat No 10006735).
Determination of the affinity of a test compound is calculated by subtraction of the non-specific binding (NSB) from the total binding (Bo) or the binding in the presence of the test compound (B) at a given compound concentration. […] The Bo−NSB value is set to 0% inhibition.
For the compound `Cc1nn(Cc2ccc(NC(=O)c3ccc(C(F)(F)F)cc3)cc2)c(-c2ccccc2)c1CC(=O)O` [Example 2.9], the Ki was determined as 1.8 nM. With `CCc1nn(Cc2ccc(C(=O)NCc3ccc(Cl)c(C(F)(F)F)c3)cc2)c(CC)c1CC(=O)O` [Example 9.19] the figure was 30.5 nM; with `Cc1nn(Cc2ccc(C[S+]([O-])c3ccc(Cl)c(Cl)c3)cc2)c(C)c1CC(=O)O` (stereo not shown) [Example 16.5], 325 nM; with `Cc1nn(Cc2ccc(CS(=O)(=O)c3ccc(C(F)(F)F)cc3)cc2)c(C)c1CC(=O)O` [Example 16.3], 2290 nM. With `CCc1nn(Cc2ccc(C(=O)Nc3ccc4ccccc4n3)cc2)c(CC)c1CC(=O)O` [Example 9.23] the figure was 4 nM; with `CCc1nn(Cc2ccc([S+]([O-])Cc3ccc(Cl)c(Cl)c3)cc2)c(CC)c1CC(=O)O` (stereo not shown) [Example 19.3], 12.2 nM. Compound `Cc1nn(Cc2ccc(NC(=O)C3CCCCC3)cc2)c(C)c1CC(=O)O` [Example 1.33] displayed a Ki of 29.8 nM. With `CCc1nn(Cc2ccc(NC(=O)c3cccc4ccccc34)cc2)c(C2CC2)c1CC(=O)O` [Example 2.48] the figure was 1.8 nM; with `Cc1c(CC(=O)O)c(-c2ccccc2)nn1Cc1ccc(NC(=O)c2ccc(Cl)c(Cl)c2)cc1` [Example 2.13], 2.9 nM; with `Cc1nn(Cc2ccc([S+]([O-])Cc3ccc(Cl)c(Cl)c3)cc2)c(C)c1CC(=O)O` (stereo not shown) [Example 19.2], 12 nM. In the case of `Cc1nn(Cc2ccc(COc3ccc(C(F)(F)F)cc3)cc2)c(C)c1CC(=O)O` [Example 14.1] it was 1530 nM; in that of `Cc1cc(C(F)(F)F)ccc1C(=O)Nc1ccc(Cn2nc(C)c(CC(=O)O)c2C)cc1` [Example 1.11], 2.7 nM; in that of `Cc1nn(Cc2ccc(C(=O)Nc3cccc(C(F)(F)F)c3)cc2)c(C)c1CC(=O)O` [Example 9.5], 13.7 nM. In the case of `CCc1nn(Cc2ccc(NC(=O)C3[C@H]4C[C@@H]5C[C@@H](C[C@H]3C5)C4)cc2)c(CC)c1CC(=O)O` (stereo partly shown) [Example 2.33] it was 0.8 nM; in that of `CCc1c(CC(=O)O)c(C)nn1Cc1ccc(NC(=O)c2ccc(C(F)(F)F)cc2)cc1` [Example 2.52], 0.5 nM; in that of `Cc1cc(C)c(C(=O)Nc2ccc(Cn3nc(C)c(CC(=O)O)c3C)cc2)c(C)c1` [Example 1.24], 553 nM. For `Cc1ccc(C(=O)Nc2ccc(Cn3nc(C)c(CC(=O)O)c3C)cc2)c(C)c1` [Example 1.12], the inhibition constant Ki worked out at 12.9 nM. The compound `Cc1nn(Cc2ccc(NC(=O)c3ccc(Cl)cc3Br)cc2)c(C)c1CC(=O)O` [Example 1.28] showed a Ki of 12.4 nM. For the compound `Cc1cc(Cl)ccc1COc1ccc(Cn2nc(C)c(CC(=O)O)c2C)cc1` [Example 13.3], the Ki was 619 nM. For `Cc1nn(Cc2ccc(NC(=O)OCc3ccccc3Cl)cc2)c(C)c1CC(=O)O` [Example 3.5], the Ki stood at 16.8 nM. In the case of `Cc1nn(Cc2ccc(NC(=O)c3ccc4ccccc4c3)cc2F)c(C)c1CC(=O)O` [Example 7.20] it was 2.2 nM. `CCc1nn(Cc2ccc(C(=O)Nc3ccc(F)c(Br)c3)cc2)c(CC)c1CC(=O)O` [Example 9.14]: the Ki was 3.1 nM.

Consider `CCc1nn(Cc2ccc(NC(=O)C(C)C)cc2)c(CC)c1CC(=O)O` [Example 2.34], for which affinity was put at a Ki of 4.3 nM.

`CCc1nn(Cc2ccc(NC(=O)c3ccc(Br)cc3Cl)cc2)c(CC)c1CC(=O)O` [Example 2.22] showed an inhibitory constant (Ki) of 1.9 nM. `Cc1nn(Cc2ccc(NC(=O)CCc3ccccc3)cc2)c(C)c1CCC(=O)O` [Example 8.5] gave an inhibition constant Ki of 427 nM.

With `Cc1nn(Cc2ccc(NC(=O)c3ccc(C(F)(F)F)cc3)cc2)c(C)c1CC(=O)O` [Example 1.1], the affinity corresponds to a Ki of 2.9 nM. With `CCc1nn(Cc2ccc(NC(=O)c3ccc(Cl)cc3C)cc2)c(C2CC2)c1CC(=O)O` [Example 2.49] the figure was 0.6 nM; with `Cc1nn(Cc2ccc(NC(=O)c3ccc(Cl)cc3)cc2)c(C)c1CC(=O)O` [Example 1.6], 3.5 nM; with `Cc1ccc(C(=O)Nc2ccc(Cn3nc(C)c(CC(=O)O)c3C)cc2)cc1` [Example 1.4], 7.7 nM. Compound `Cc1nn(Cc2ccc(NC(=O)c3cc4ccccc4cc3Cl)cc2)c(C)c1CC(=O)O` [Example 1.23] displayed a Ki of 5.7 nM. In the case of `Cc1cc(Cl)ccc1C(=O)Nc1ccc(Cn2nc(C)c(CC(=O)O)c2C)c(Cl)c1` [Example 7.7] it was 3.4 nM; in that of `CCc1nn(Cc2ccc(C(=O)Nc3ccc(Cl)c(C(F)(F)F)c3)cc2F)c(CC)c1CC(=O)O` [Example 9.27], 0.5 nM. In the case of `Cc1cc(Cl)ccc1C(=O)Nc1ccc(Cn2nc(C)c(CC(=O)O)c2C)cc1` [Example 1.2] it was 16.3 nM; in that of `Cc1nn(Cc2ccc(C(=O)Nc3ccc(Br)c(F)c3)cc2)c(C)c1CC(=O)O` [Example 9.9], 19.4 nM.

In the case of `CCc1nn(Cc2ccc(C(=O)N[C@@H]3CCC[C@H](c4ccccc4)C3)cc2)c(CC)c1CC(=O)O` [Example 9.22], affinity was put at a Ki of 15.6 nM. With `CCc1nn(Cc2ccc(NC(=O)OCc3ccccc3Cl)cc2)c(CC)c1CC(=O)O` [Example 3.10] the figure was 5.2 nM; with `CCc1nn(Cc2ccc(/C=C/c3ccc(Cl)cc3)cc2)c(CC)c1CC(=O)O` [Example 12.3], 12.3 nM. With `Cc1cc2ccccc2cc1C(=O)Nc1ccc(Cn2nc(C)c(CC(=O)O)c2C)cc1` [Example 1.25] the figure was 3.1 nM; with `Cc1nn(Cc2ccc(NC(=O)C3[C@H]4C[C@@H]5C[C@@H](C[C@H]3C5)C4)cc2)c(C)c1CC(=O)O` (stereo partly shown) [Example 1.34], 4 nM; with `Cc1nn(Cc2ccc(NC(=O)c3ccc(C(F)(F)F)cc3F)cc2)c(C)c1CC(=O)O` [Example 1.22], 3320 nM.

`Cc1nn(Cc2ccc(NC(=O)c3ccccc3)cc2)c(C)c1CC(=O)O` [Example 1.3]: affinity was put at a Ki of 30.8 nM. With `Cc1nn(Cc2ccc(COc3ccccc3)cc2)c(C)c1CC(=O)O` [Example 14.3] the figure was 742 nM. In the case of `CCc1nn(Cc2ccc(S(=O)(=O)Nc3ccc(Cl)c(Cl)c3)cc2)c(CC)c1CC(=O)O` [Example 10.4] it was 21.6 nM. With `Cc1nn(Cc2ccc(C(O)Cc3ccccc3)cc2)c(C)c1CC(=O)O` (stereo not shown) [Example 15.1] the figure was 785 nM. Compound `Cc1nn(Cc2ccc(NS(=O)(=O)c3ccc(C(F)(F)F)cc3)cc2)c(C)c1CC(=O)O` [Example 5.4] gave a Ki of 230 nM. In the case of `Cc1cc(C(F)(F)F)ccc1C(=O)Nc1ccc(Cn2nc(C)c(CCC(=O)O)c2C)cc1` [Example 8.7] it was 669 nM; in that of `CCc1nn(Cc2ccc(NC(=O)c3ccc(Cl)cc3C)cc2)c(CC)c1CC(=O)O` [Example 2.2], 1.1 nM. `Cc1nn(Cc2ccc(/C=C/c3ccc(C(F)(F)F)cc3)cc2)c(C)c1CC(O)O` [Example 12.2] gave a Ki of 56.3 nM. `Cc1nn(Cc2ccc(CSc3ccc(Cl)c(Cl)c3)cc2)c(C)c1CC(=O)O` [Example 16.4]: the inhibitory constant (Ki) turned out to be 875 nM. With `Cc1cc(Cn2nc(C)c(CC(=O)O)c2C)ccc1NC(=O)c1ccc(Cl)cc1` [Example 7.2] the figure was 162 nM; with `CCc1nn(Cc2ccc(NC(=O)OCc3ccccc3Br)cc2)c(CC)c1CC(=O)O` [Example 3.11], 3.5 nM.

With `Cc1nn(Cc2ccc(C(C)Oc3ccccc3)cc2)c(C)c1CC(=O)O` (stereo not shown) [Example 14.6], the Ki was found to be 428 nM.
